{
  "source": "patent US20250152504A1",
  "about": "“INTRAUTERINE SYSTEMS COMPRISING ANTI-INFECTIVES FOR STEADY-STATE ACCUMULATION TO DISTAL EXTRAUTERINE TISSUE” (priority 2023, published 2025)",
  "key": {"[1]": {"assay": "In vitro release of 1% dapivirine from ethylene-vinyl acetate polymers", "assay_type": "physicochemical", "conditions": "1% DPV in EVA, within 720 hours", "excerpt": "Ethylene-vinyl acetate polymers (EVA) were also investigated for the use in the intrauterine systems described herein. FIGS. 19A-19B are graphs showing release for dapirivine (DPV) in ethylene-vinyl acetate polymers (EVAs), in accordance with the present technology."}, "[2]": {"assay": "In vitro drug release from TPU matrix delivery system prototypes", "assay_type": "physicochemical", "conditions": "for Predicted T50%: from best-fit release model", "method": "Films were cut into disks with a 1-inch diameter die punch; disks were stacked and placed between two pieces of aluminum foil and compressed under a metal weight on a 120° C. dry bath. Thickness was monitored frequently until it measured 3.5 mm with digital calipers calibrated to 0.01 mm. Devices were cut from thick films using a custom rectangular 3.5 mm×13.3 mm die punch.\nAll release tests were performed in sink conditions in PBS supplemented with 2% w/v Cremophor® A25/Emulgin® B25. For the first 7-days of drug release testing, 1 mL samples were taken daily; following 7 days, samples were taken every 3-4 days. At all timepoints, bottles were drained and replaced with fresh media following sampling.\nA qualification for selecting an optimal TPU for DPV delivery in this application is the time to achieve 50% cumulative release of drug. This is based on the standard use time of hormonal IUDs, which in practice are removed once about half of the initial load of drug is depleted from the device. Here, this standard was used as a benchmark to evaluate the sustained release properties of candidate delivery system designs. […] The fit of first-order release kinetics to the data was assessed. Equations 1 and 2 describe drug release from a system where dissolution is dependent on a concentration gradient.\nWhere k is the first order rate constant, Ct is the concentration of drug in solution at time t and C0 is the initial concentration of drug.\nWhere Q is the amount of drug release in time t and kh is the Higuchi release constant.\nBased on the best-fit square-root of time relation, T50% was calculated for each TPU. […] Korsmeyer and Peppas provided a method for understanding drug release mechanisms of swelling and non-swelling polymeric systems, given by Equation 4: […]\nWhere Mt/M∝ is the fraction of drug released at time t, K is the rate constant, and n is the release exponent."}, "[3]": {"conditions": "cited from earlier work"}, "[4]": {"assay_type": "physicochemical", "excerpt": "Both polyether sheath reservoirs (R1 & R2) released DPV faster than polycarbonate sheath reservoirs (R3 & R4). […] Thus, with DPV loaded at 1 wt % which is below the saturation solubility, these reservoirs contain a nonconstant activity source. Pursuant to the behavior of reservoirs with a nonconstant activity source, these reservoirs released drug following first-order release kinetics. Despite this expectation, drug release from all four reservoir devices was described slightly better by a square-root of time dependence."}, "physchem": {"assay": "physchem", "assay_type": "physicochemical", "conditions": "37 °C, aqueous with cosolvent or surfactant or cyclodextrin, thermodynamic from solid", "excerpt": "FIGS. 6A-6C are graphs showing differential dapivirine release driven by polymer crystallinity and water penetration, in accordance with the present technology."}, "HIV-1": {"test_system": "HIV-1", "conditions": "cited from earlier work"}, "[5]": {"assay_type": "in vivo", "conditions": "baboon, about one month of intrauterine instillation", "excerpt": "Animals were monitored for signs of discomfort including decreased appetite, lethargy, and hunched posture. Tissue biopsies for histological analysis were fixed in 4% paraformaldehyde, dehydrated in alcohol, and embedded in paraffin. Cross sectional samples (5 μm) were taken and stained with hematoxylin and eosin (H&E) stain.\nVaginal tissue biopsies taken pre-insertion and 28-days post-insertion show characteristic features of healthy a vaginal epithelium, including a multilayered stratified squamous epithelium consisting of enucleated cells, a densely nucleated basal cell layer, and an inconspicuous lamina propria. Vaginal tissue biopsied 28-days post insertion has an intact stratified squamous epithelium that measures approximately 200 μm thick. Both pre-insertion and 28-days post-insertion cervical biopsies contain regions of a single columnar epithelium, while the underlying cervical stroma is composed of densely vascularized, fibromuscular tissue. The 28-day post-insertion cervical biopsy contains a thick stratus corneum of the exocervix; the epithelium overlays a prominent lymphoid aggregate, a feature of mucosa-associated lymphoid tissue (MALT) in the type I mucosa of the endocervix. Some cellular atypia is notable as a few epithelial cells display irregular nuclear membranes and perinuclear halos. […]"}},
  "data": [
    {"molecule": "Cc1cc(C)c(Nc2ccnc(Nc3ccc(C#N)cc3)n2)c(C)c1", "note": "[DPV, dapivirine]", "values": [
      {"measurement": "cumulative release of loaded DPV", "setting": "[1]", "value": "about 80%"},
      {"measurement": "DPV dose released per day", "setting": "[2]; 1 wt % DPV, all four TPUs, within target range", "value": "10 to 50", "unit": "µg/day"},
      {"measurement": "Actual T50%", "setting": "[2]; 1 wt % loading, TPU1 matrix", "value": 12, "unit": "days"},
      {"measurement": "First-Order: k", "setting": "[2]; 1 wt % loading, TPU1 matrix", "value": "0.002, h^−1"},
      {"measurement": "Higuchi: kH", "setting": "[2]; 1 wt % loading, TPU1 matrix", "value": "0.029, %/h^1/2"},
      {"measurement": "Korsmeyer-Peppas Constant: n", "setting": "[2]; 1 wt % loading, TPU1 matrix", "value": "0.525,"},
      {"measurement": "Predicted T50%", "setting": "[2]; 1 wt % loading, TPU1 matrix", "value": 12, "unit": "days"},
      {"measurement": "Actual T50%", "setting": "[2]; 1 wt % loading, TPU2 matrix", "value": 12, "unit": "days"},
      {"measurement": "First-Order: k", "setting": "[2]; 1 wt % loading, TPU2 matrix", "value": "0.002, h^−1"},
      {"measurement": "Higuchi: kH", "setting": "[2]; 1 wt % loading, TPU2 matrix", "value": "0.027, %/h^1/2"},
      {"measurement": "Korsmeyer-Peppas Constant: n", "setting": "[2]; 1 wt % loading, TPU2 matrix", "value": "0.549,"},
      {"measurement": "Predicted T50%", "setting": "[2]; 1 wt % loading, TPU2 matrix", "value": 13.5, "unit": "days"},
      {"measurement": "Actual T50%", "setting": "[2]; 1 wt % loading, TPU3 matrix", "value": 7, "unit": "days"},
      {"measurement": "First-Order: k", "setting": "[2]; 1 wt % loading, TPU3 matrix", "value": "0.004, h^−1"},
      {"measurement": "Higuchi: kH", "setting": "[2]; 1 wt % loading, TPU3 matrix", "value": "0.038, %/h^1/2"},
      {"measurement": "Korsmeyer-Peppas Constant: n", "setting": "[2]; 1 wt % loading, TPU3 matrix", "value": "0.662,"},
      {"measurement": "Predicted T50%", "setting": "[2]; 1 wt % loading, TPU3 matrix", "value": 7, "unit": "days"},
      {"measurement": "First-Order: k", "setting": "[2]; 1 wt % loading, TPU4 matrix", "value": "0.0007, h^−1"},
      {"measurement": "Higuchi: kH", "setting": "[2]; 1 wt % loading, TPU4 matrix", "value": "0.017, %/h^1/2"},
      {"measurement": "Korsmeyer-Peppas Constant: n", "setting": "[2]; 1 wt % loading, TPU4 matrix", "value": "0.614,"},
      {"measurement": "Predicted T50%", "setting": "[2]; 1 wt % loading, TPU4 matrix", "value": 36, "unit": "days"},
      {"measurement": "cumulative release of encapsulated drug", "setting": "[2]; 1 wt %, TPU3 matrix, by 30 days / one month", "value": "approximately 95%"},
      {"measurement": "First-Order: k", "setting": "[2]; 16.6 wt % loading, TPU4 matrix", "value": 0.0005, "unit": "h⁻¹"},
      {"measurement": "Higuchi: kH", "setting": "[2]; 16.6 wt % loading, TPU4 matrix", "value": "0.014, %/h^1/2"},
      {"measurement": "Predicted T50%", "setting": "[2]; 16.6 wt % loading, TPU4 matrix", "value": 53.5, "unit": "days"},
      {"measurement": "cumulative release of loaded drug", "setting": "[2]; 16.6 wt %, TPU4 matrix, after 30 days", "value": "approximately 33.5%"},
      {"measurement": "release rate", "setting": "[2]; 16.6 wt %, TPU4 matrix, final rate at 30 days, per each ⅓ segment of the device", "value": "approximately 62.56 μg/day"},
      {"measurement": "Cmax", "setting": "[3]; in vivo", "value": 0.355, "unit": "ng/mL"},
      {"measurement": "treatment-emergent adverse events", "setting": "[3]; in vivo", "value": "no treatment-emergent adverse events were observed"},
      {"measurement": "plasma concentration required to reduce viral load", "setting": "[3]; oral DPV administration", "value": "100 to 200", "unit": "ng/mL"},
      {"measurement": "saturation solubility of DPV in a PY-PT43DE20 core", "setting": "[4]", "value": "5.46±0.93", "unit": "wt %"},
      {"measurement": "solubility", "setting": "physchem", "value": "164 ± 9.4", "unit": "µg/mL"},
      {"measurement": "inhibition of provirus formation", "setting": "HIV-1; at 1 nM (0.33 ng/mL)", "value": 99, "unit": "%"},
      {"measurement": "infection prevented (dissemination of HIV-1 by CD4+ dendritic cells)", "setting": "HIV-1; at 10 nM (3.3 ng/mL)", "value": 90, "unit": "%"},
      {"measurement": "IC90 in cervicovaginal tissue", "setting": "HIV-1; concentration with which tissue explants were treated", "value": 3.3, "unit": "ng/mL"},
      {"measurement": "lowest concentration inhibiting productive infection of ectocervical tissue", "setting": "HIV-1; ex vivo viral inhibition model", "value": 0.1, "unit": "nM"},
      {"measurement": "tolerability / histological findings", "setting": "[5]", "value": "likely safe and well-tolerated in baboons"}
    ]}
  ]
}
